Source: PubChem BioAssay (NCI)
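96-well plates; 48 h exposure; 5 concentrations. Endpoints by linear interpolation between flanking doses. Not reached: highest tested concentration assigned. GI50: concentration for 50% inhibition of growth. TGI is the concentration that stops growth completely.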

Columns and labels:
Test in all cases: NCI anticancer screen, dose series, 48 h
[1] = system: ACHN renal
[2] = system: COLO 205 colon
[3] = system: IGROV1 ovarian
[4] = system: MDA-MB-435
[5] = system: NCI-H522 lung
[6] = system: SF-268 CNS
[7] = system: SF-539 CNS
[8] = system: SK-MEL-5 melanoma
[9] = system: SK-OV-3 ovarian
[10] = system: SNB-75 CNS

Structure (SMILES) | GI50 [1] [µM] | TGI [1] [µM] | GI50 [2] [µM] | TGI [2] [µM] | GI50 [3] [µM] | TGI [3] [µM] | GI50 [4] [µM] | TGI [4] [µM] | GI50 [5] [µM] | TGI [5] [µM] | GI50 [6] [µM] | TGI [6] [µM] | GI50 [7] [µM] | TGI [7] [µM] | GI50 [8] [µM] | TGI [8] [µM] | GI50 [9] [µM] | TGI [9] [µM] | GI50 [10] [µM] | TGI [10] [µM]
O=C(N[C@@H](Cc1coc2ccccc12)B(O)O)[C@@H]1C[C@H]2CC[C@@H]1O2 | 1.93 | > 100 | 23.1 | > 100 | 16.1 | > 100 | 1.76 | 4.04 | 5.04 | 81.6 | 9.62 | > 100 | 1.72 | 6.12 | 4.25 | 35.3 | 9.17 | > 100 | 2.78 | 38.2
COc1ccc2c(c1)c(-c1nc(-c3c[nH]c4ncccc34)cs1)cn2CCCCN1CCCCC1 | 1.66 | 3.04 |  |  |  |  |  |  |  |  | 1.59 | 3.21 |  |  |  |  | 1.75 | 3.18 | 1.27 | 2.68
CNC(C)C(O)c1ccc2oc3cc(=O)c4ccccc4c-3nc2c1 (centres undefined) |  | 57.9 |  | > 100 |  | > 100 |  | 3.54 |  | 33.7 |  | > 100 |  | 5.99 |  | 6.68 |  | > 100 |  | 
Nc1nc(SCc2ccccc2Cl)c2[nH]cnc2n1 |  | > 100 |  | > 100 |  | > 100 |  |  |  | > 100 |  | > 100 |  | > 100 |  | > 100 |  | > 100 |  | 
C=CCCC1(C)CCCNC1=S (centres undefined) |  | > 100 |  | > 100 |  | > 100 |  |  |  |  |  |  |  | > 100 |  | > 100 |  | > 100 |  | > 100
CCOC(=O)c1sc2nc(SC)nc(Nc3ccc4c(c3)OCCO4)c2c1N |  | 19.8 |  | > 100 |  | 78.6 |  | 42.7 |  | 23.8 |  | 20.4 |  | 18.2 |  | 26.7 |  |  |  | 
CCCO[C@@H]1[C@@H](OC(C)=O)[C@@H](OC(C)=O)C(C)(C)/C=C/[C@H](C)C(=O)[C@@]2(OC(C)=O)C[C@@](C)(OC(C)=O)[C@H](OC(C)=O)[C@@H]2[C@H]2OC(=O)CC[C@@]12OC(=O)c1ccccc1 |  | > 25 |  | > 25 |  | > 25 |  | > 25 |  | > 25 |  | > 25 |  | > 25 |  | > 25 |  | > 25 |  | > 25
O=C1c2ccccc2OCC12OC21C=CC(Cl)=CC1 (centres undefined) |  | > 100 |  | 33.4 |  | > 100 |  | 51.5 |  |  |  | > 100 |  | > 100 |  | 28.3 |  | > 100 |  | 
CCC(=O)OCN(C)c1nc(N(C)COC(=O)CC)nc(N(C)COC(=O)CC)n1 |  |  |  | 59.2 |  | > 100 |  | > 100 |  |  |  |  |  |  |  | 52.5 |  | > 100 |  | > 100
Cc1nc2ccc(S(=O)(=O)Nc3nccs3)cc2c(=O)n1NS(=O)(=O)c1nccs1 |  | > 100 |  | > 100 |  | > 100 |  | > 100 |  | > 100 |  | > 100 |  | > 100 |  | > 100 |  | > 100 |  | > 100
CCCCC1C=Cn2c(=O)oc3c(OC(C)C)c(C)c(O)c1c32 (centres undefined) |  | 3.35 |  | 9.97 |  | 10.1 |  | 3.38 |  | 5.87 |  | 13.2 |  | 19.2 |  | 6.59 |  | 13.3 |  | 4.83
